# Measurements as given in patent publication US8097646B2, “Ophthalmic preparation containing menthyl ester of indomethacin” (AlphaRx, Inc., priority 2005, dated 2012).
# Assays:
# [1] = cited from earlier work
# [2] = Solubility of the substance in water and solvents; assay type: physicochemical
# Description: MEI is a slightly yellow crystalline substance with a melting point of 86-90° C. […] The NMR, mass-spectrometry and FT-IR-spectrum results were: […]
# [3] = Pharmacokinetics of MEI in rats after intraperitoneal administration (Example 11, FIG. 2); assay type: in vivo; settings: 20 mg/kg intraperitoneally, submicron emulsion (Example 6), Wistar rats
# Description: FIG. 2 is a graph illustrating the pharmacokinetics of MEI in Wistar rats after intraperitoneal IP) administration (20 mg/kg, Example 6) as described in Example 11.
# [4] = tested on: eye; experiment: Comparison of ocular irritation levels, one drop onto the eye of volunteers (Example 10); assay type: in vivo, healthy volunteers; settings: ophthalmic formulation comprising MEI, volunteers n=3
# Description: The ocular irritation of MEI in an ophthalmic formulation as compared with an indomethacin-containing ophthalmic preparation has been tested in 3 healthy volunteers. One drop (40-50 mcl) of the tested formulations (0.25% of MEI (as per Example 5-9), 0.1% Indocollyre®, and sterile saline as the control) was placed onto the eye of each volunteer using an appropriate dropper. The interval between sample applications was at least 24 hours The comparative irritation for MEI, indomethacin and other NSAIDs (Indocollyre®) in ophthalmic formulations is set out in Table 4 (volunteers data, n=3): The irritation scale in the above table ranges from 0-10, with 0 corresponding to no burning or itching, and 10 corresponding to extremely severe burning or itching.
# [5] = tested on: carrageenan paw edema; experiment: Carrageenan paw edema model (Example 12, FIG. 3); assay type: in vivo; settings: intraperitoneally administrated, rats n=4, 1% carrageenan into hind paw
# Description: FIG. 3 is a graph illustrating the comparative anti-inflammatory activity of indomethacin and MEI in a carrageenan paw edema model (rats, n=4) as described in Example 12.
# FIG. 3 represents the anti-inflammatory activity of MEI in a carrageenan model. Inflammation in rats (n=4) was caused by injection of 100 microliters of sterile 1% carrageenan solution into a hind paw, originating local edema development with maximum development at 3-4 hours after administration. The contaralateral paw was injected with 100 microliters of saline and used as control. Paw volumes were measured by plethysmometry, (Ugo Basil Plethysmometer, Italy) and the calculated difference in paw volumes indicated the severity of inflammation.
"Solubility in alcohol, methylene chloride and chlorophorm, ethyl acetate, glycerides and other organic solvents ([2]; organic solvents)","Solubility in propylene glycol and polyethylene glycol (PEG)-400 ([2]; propylene glycol, PEG-400)",Solubility in water ([2]; water),Level of the parent substance (MEI itself) [3],Structure (SMILES),pH above which the substance is unstable [1],Metabolism of MEI and release of indomethacin [3],Irritation compared with indomethacin in solution [4],Anti-inflammatory activity (difference in paw volumes) [5]
,,,,"COc1ccc2c(c1)c(CC(=O)O)c(C)n2C(=O)c1ccc(Cl)cc1 [Indomethacin, 1-(4-Chlorobenzoyl)-5-Methoxy-2-methyl-1H-indole-3-acetic acid]",greater than 6.0,,,
freely soluble,poorly soluble,insoluble,decreases rapidly,"COc1ccc2c(c1)c(CC(=O)OC1CC(C)CCC1C(C)C)c(C)n2C(=O)c1ccc(Cl)cc1 (centres unmarked) [MEI, Menthyl ester of indomethacin]",,rapidly metabolizes and releases indomethacin for a prolonged period,significantly lower irritation than indomethacin in solution,high level of anti-inflammatory activity
